Reference: patent publication US6541020B1, “Methods and compositions for administration of therapeutic reagents” (Trimeris, Inc., priority 1999, dated 2003)

Tests used:
[1] = Pharmacokinetic study of T1249 in hydrogel composition or aqueous solution, subcutaneous injection, blood plasma levels; format: in vivo, Sprague-Dawley rats; conditions: s.c.; for PTF / AUC(0-inf) / Cmax / Tmax / AUC(0-t) / half-life: approximately 1.25 mg/kg, rat plasma; for AUC(0-inf) / Cmax / Tmax / AUC(0-t) / half-life: Sprague-Dawley, rat, plasma, sc, 1.25 mg/kg; for AUC(0-t): read-out: AUC(0-12); for half-life: read-out: t1/2,terminal (converted)
Description: (§1) Pharmacokinetic parameters were calculated from the data as follows: The terminal elimination phase half (t½, terminal) was calculated using the equation 0.693/k, where k equals the terminal elimination rate constant and is determined from a log/linear regression of at least three data points from the plasma concentration-time curve. Cmax was defined as the highest observed concentration between 0 and 12 hours postdose, and tmax is the collection time corresponding to Cmax. The area under the plasma concentration-time curve from 0 to 12 hours postdose (AUC(0-12) was calculated using the trapezoidal rule. AUC(0-∞) was calculated using the trapezoidal rule and extrapolated to infinity by dividing the last plasma concentration by the terminal elimination rate constant (k). PTF values (peak-trough fluctuations) were calculated using the equation (Cmax-Cmin)/Cav. Cmin was defined as the concentration of T20 at 12 hours postdose, and Cav was calculated using the equation AUC(0-12)/12.
Carrier hydrogel compositions containing T1249 were prepared in both a hydrogel and aqueous compositions. A hydrogel composition was prepared by adding 12.5 mg of lyophilized T1249 to 1 mL of the F5 hydrogel formulation described above in Section 6. A pharmaceutical composition of T1249 in aqueous solution was also prepared by combining lyophilized T1249 (12.5 mg) to 2 mL of water for injection (USP). The contained 12.5 mg of T1249, 25 mg mannitol and sodium hydroxide/hydrochloric acid to adjust the pH to 6.5.
The T1249 carrier hydrogel composition were administered to Sprague-Dawley rats according to the protocol described in Section 7.1, above, for T20. The rats were divided randomly into two groups (Groups I and II). The rats in Group I were each administered the above-described hydrogel compositions containing T1249. The rats in Group II were each administered the above-described composition of T1249 in aqueous buffer as a control. Blood plasma levels of T1249 were measured from samples collected from the animals immediately after (0 hours) and 1, 2, 4, 8, 12, 24, 36 and 48 hours post-dosing.
Pharmacokinetic parameters were calculated from the data as described in Section 7.1, above.

[2] = Pharmacokinetic study of T20 in hydrogel compositions or aqueous solution, single subcutaneous bolus injection, blood plasma levels; format: in vivo, Sprague-Dawley rats; conditions: for Tmax / half-life / AUC(0-inf) / Cmax / AUC(0-t): male, Sprague-Dawley, sc; for AUC(0-t): read-out: AUC(0-12)
Description: Pharmacokinetic studies were performed on 16 cannulated male Sprague-Dawley rats having an average weight of 0.230 kg (StdDev=0.008 kg). Specifically, the rats were divided randomly into four groups (Groups I-IV). The rats in Group I were each administered T20 at a concentration of 50 mg/mL in a higher viscosity gel system (i.e., of the F2-50 pharmaceutical composition described in Section 6.1, supra. The rats in Group II were each administered T20 at a concentration of 25 mg/mL in a higher viscosity gel system (i.e., of the F2-25 pharmaceutical composition described in Section 6.1, supra). The rats in Group III were each administered T20 at a concentration of 25 mg/mL in a lower viscosity gel system (i.e., of the F5-25 pharmaceutical composition described in Section 6.1, supra). The rats in Group IV were administered T20 at a concentration of 25 mg/mL in an aqueous buffer (i.e., the WI-25 pharmaceutical composition described supra) as a control. The rats in all of the groups received the T20 via a single subcutaneous bolus injection of 25 μL of the formulation on the right side of the abdomen through a 30G½ Gauge needle. Each group received a dose level of approximately 5 mg/kg (Group I) or 2.5 mg/kg (Groups II-IV). More specifically, the dosages received by the animals in Groups I-IV were 6.71 mg/kg, 2.90 mg/kg, 3.27 mg/kg and 2.78 mg/kg, respectfully. These dosages were selected to approximate the dose levels, on a mg/cm^2 basis, to be used in humans.
Blood plasma levels of T20 were measured from samples collected from the animals immediately after (0 hours) and 1, 2, 4, 8, 12, and 24 hours post-dosing.
as §1

[3] = Group I: 12.5 mg/mL T1249 in low viscosity hydrogel (F5)
[4] = Group II: 12.5 mg/mL T1249 in aqueous buffer (control)
[5] = T20 as a subcutaneous injection of a hydrogel
[6] = 2.9 mg/kg, Group II: F2-25, 25 mg/mL T20 in high viscosity hydrogel, single s.c. bolus 25 μL, 2.90 mg/kg, rat plasma
[7] = Group I: F2-50, 50 mg/mL T20 in high viscosity hydrogel, single s.c. bolus 25 μL, 6.71 mg/kg, rat plasma
[8] = Group III: F5-25, 25 mg/mL T20 in lower viscosity hydrogel, single s.c. bolus 25 μL, 3.27 mg/kg, rat plasma
[9] = Group IV: WI-25, 25 mg/mL T20 in aqueous buffer (control), single s.c. bolus 25 μL, 2.78 mg/kg, rat plasma

CC[C@H](C)[C@H](NC(=O)[C@H](CCC(N)=O)NC(=O)[C@H](C)NC(=O)[C@H](CCC(N)=O)NC(=O)[C@H](CCC(=O)O)NC(=O)[C@H](CC(C)C)NC(=O)[C@H](CC(C)C)NC(=O)[C@H](C)NC(=O)[C@@H](NC(=O)[C@@H](NC(=O)[C@H](CCCCN)NC(=O)[C@H](CCC(N)=O)NC(=O)[C@H](CCC(=O)O)NC(=O)[C@H](Cc1c[nH]c2ccccc12)NC(=O)[C@H](CCC(=O)O)NC(=O)[C@H](CCC(N)=O)NC(=O)[C@H](Cc1c[nH]c2ccccc12)NC(C)=O)[C@@H](C)CC)[C@@H](C)O)C(=O)N[C@@H](CCC(N)=O)C(=O)N[C@@H](CCC(N)=O)C(=O)N[C@@H](CCC(=O)O)C(=O)N[C@@H](CCCCN)C(=O)N[C@@H](CC(N)=O)C(=O)N[C@@H](CCC(=O)O)C(=O)N[C@@H](Cc1ccc(O)cc1)C(=O)N[C@@H](CCC(=O)O)C(=O)N[C@@H](CC(C)C)C(=O)N[C@@H](CCC(N)=O)C(=O)N[C@@H](CCCCN)C(=O)N[C@@H](CC(C)C)C(=O)N[C@@H](CC(=O)O)C(=O)N[C@@H](CCCCN)C(=O)N[C@@H](Cc1c[nH]c2ccccc12)C(=O)N[C@@H](C)C(=O)N[C@@H](CO)C(=O)N[C@@H](CC(C)C)C(=O)N[C@@H](Cc1c[nH]c2ccccc12)C(=O)N[C@@H](CCC(=O)O)C(=O)N[C@@H](Cc1c[nH]c2ccccc12)C(=O)N[C@@H](Cc1ccccc1)C(N)=O [T1249]
PTF [1, 3]: 1.62 ± 0.086 | PTF [1, 4]: 4.44 ± 0.680 | AUC(0-inf) [1, 3]: 29100 ± 5200 ng·h/mL | Cmax [1, 3]: 1900 ± 334 ng/mL | Tmax [1, 3]: 8 h | AUC(0-t) [1, 3]: 28200 ± 5640 ng·h/mL | half-life [1, 3]: 3.37 ± 0.68 h | AUC(0-inf) [1, 4]: 18400 ± 4070 ng·h/mL | Cmax [1, 4]: 3320 ± 215 ng/mL | Tmax [1, 4]: 2 h | AUC(0-t) [1, 4]: 18300 ± 4060 ng·h/mL | half-life [1, 4]: 2.28 ± 0.122 h | pharmacokinetic properties, hydrogel versus aqueous solution ([1]; T1249 administered in a hydrogel composition): improved pharmacokinetic properties

enfuvirtide
T20 plasma concentration levels within 12 hours ([2]; T20 administered by a hydrogel, s.c.): remained elevated | T20 plasma concentration levels within 12 hours ([2]; T20 administered in an aqueous solution, s.c.): already cleared the blood stream | change of bioavailability, hydrogel versus aqueous solution [2, 5]: approximately doubling | change of half-life, hydrogel versus aqueous solution [2, 5]: approximately doubling | dose proportionality of pharmacokinetics (AUC, t½) ([2]; high viscosity hydrogel formulation of T20, s.c., both dose levels): linearity of pharmacokinetics within the dose range tested | Tmax ([2]; rat, plasma, 2.78 mg/kg, Group IV: WI-25, 25 mg/mL T20 in aqueous buffer (control), single s.c. bolus 25 μL, 2.78 mg/kg, rat plasma): ~2 h | Tmax ([2]; rat, plasma, 2.9 mg/kg, Group II: F2-25, 25 mg/mL T20 in high viscosity hydrogel, single s.c. bolus 25 μL, 2.90 mg/kg, rat plasma): 4 h | Tmax ([2]; rat, plasma, 3.27 mg/kg, Group III: F5-25, 25 mg/mL T20 in lower viscosity hydrogel, single s.c. bolus 25 μL, 3.27 mg/kg, rat plasma): 4 h | half-life ([2]; rat, plasma, T20 administered in a hydrogel, s.c., depending on the exact hydrogel formulation and T20 dosage, read-out: group mean half-life values): 4.27 to 4.75 h | AUC(0-inf) [2, 6]: 24800 ± 4860 ng·h/mL | Cmax [2, 6]: 2830 ± 316 ng/mL | AUC(0-t) [2, 6]: 19600 ± 3450 ng·h/mL | half-life ([2]; 2.9 mg/kg, Group II: F2-25, 25 mg/mL T20 in high viscosity hydrogel, single s.c. bolus 25 μL, 2.90 mg/kg, rat plasma, read-out: t1/2,terminal (converted)): 4.27 ± 0.159 h | AUC(0-inf) [2, 7]: 55400 ± 9150 ng·h/mL | Cmax [2, 7]: 5970 ± 499 ng/mL | AUC(0-t) [2, 7]: 43400 ± 4480 ng·h/mL | half-life ([2]; Group I: F2-50, 50 mg/mL T20 in high viscosity hydrogel, single s.c. bolus 25 μL, 6.71 mg/kg, rat plasma, read-out: t1/2,terminal (converted)): 4.75 ± 0.285 h | AUC(0-inf) [2, 8]: 32800 ± 9710 ng·h/mL | Cmax [2, 8]: 3780 ± 751 ng/mL | AUC(0-t) [2, 8]: 25700 ± 6140 ng·h/mL | half-life ([2]; Group III: F5-25, 25 mg/mL T20 in lower viscosity hydrogel, single s.c. bolus 25 μL, 3.27 mg/kg, rat plasma, read-out: t1/2,terminal (converted)): 4.61 ± 0.618 h | AUC(0-inf) [2, 9]: 6080 ± 1610 ng·h/mL | Cmax [2, 9]: 1550 ± 640 ng/mL | AUC(0-t) [2, 9]: 5870 ± 1690 ng·h/mL | half-life ([2]; Group IV: WI-25, 25 mg/mL T20 in aqueous buffer (control), single s.c. bolus 25 μL, 2.78 mg/kg, rat plasma, read-out: t1/2,terminal (converted)): 2.19 h
